Assay [1] concerns the target ATX (human His-tagged) (Homo sapiens (Human), UniProt Q13822). The assay is described as follows: Human ATX enzyme inhibition assay (fluorescence quenching, MR121 substrate). Type of assay: biochemical. Conditions: 30 nM ATX, 1 μM MR121 substrate, 30° C.
Assay [2] addresses Human carbonic anhydrase II (hCA-II) (Homo sapiens (Human), UniProt P00918). The assay is described as follows: Human carbonic anhydrase-II inhibition assay (absorbance, 4-nitrophenyl acetate substrate). Type of assay: biochemical. Conditions: 8 nM hCA II, 2.5 mM 4-NPA, absorbance 340 nm, 1 hour room temperature; read-out: CA-II IC50.

Structures are written as SMILES. pIC50: −log10 of the molar value.

The term pIC50 denotes the IC50 on a negative log10 scale, so that one unit is a factor of ten. For the molecule `Cc1nnn(Cc2cc(Cl)cnc2COC(=O)N2CCC(S(=O)(=O)c3ccc(S(N)(=O)=O)cc3F)CC2)n1` [Example 1.03, [5-chloro-3-[(5-methyltetrazol-2-yl)methyl]pyridin-2-yl]methyl 4-(2-fluoro-4-sulfamoylphenyl)sulfonylpiperidine-1-carboxylate], the pIC50 in assay [1] is 7.14.

In assay [1], `Cc1nnn(Cc2cc(C(F)(F)F)ccc2COC(=O)N2CCC(S(=O)(=O)c3ccc(S(N)(=O)=O)cc3F)CC2)n1` [Example 1.04, [2-[(5-methyltetrazol-2-yl)methyl]-4-(trifluoromethyl)phenyl]methyl 4-(2-fluoro-4-sulfamoylphenyl)sulfonylpiperidine-1-carboxylate] showed a pIC50 of 8.10.

For `NS(=O)(=O)c1ccc(CN2CCN(C(=O)c3cc(OCC4CCOCC4)nc(C4CC4)c3)CC2)c(F)c1` [Example 2.02, 4-[[4-[2-cyclopropyl-6-(oxan-4-ylmethoxy)pyridine-4-carbonyl]piperazin-1-yl]methyl]-3-fluorobenzenesulfonamide], the pIC50 in assay [2] is 7.81; in assay [1], 8.15.

Take `Cc1nnn(Cc2cc(C(F)(F)F)ccc2CCC(=O)N2CCC(CC[S+]([O-])c3ncc(S(N)(=O)=O)s3)CC2)n1` (stereo not shown) [Example 6.06, 2-[2-[1-[3-[2-[(5-methyltetrazol-2-yl)methyl]-4-(trifluoromethyl)phenyl]propanoyl]piperidin-4-yl]ethylsulfinyl]-1,3-thiazole-5-sulfonamide]: the figures for the pIC50 in assay [2] and in assay [1] were 7.85 and 8.40, respectively.

Consider `Cc1nnn(Cc2cc(OC(F)F)ccc2CCC(=O)N2CCC(CC[S+]([O-])c3ccc(S(N)(=O)=O)c(F)c3F)CC2)n1` (stereo not shown) [Example 6.42, 4-[2-[1-[3-[4-(difluoromethoxy)-2-[(5-methyltetrazol-2-yl)methyl]phenyl]propanoyl]piperidin-4-yl]ethylsulfinyl]-2,3-difluorobenzenesulfonamide], for which the pIC50 in assay [1] is 8.52.

The molecule `Cc1nnn(Cc2cc(C(F)(F)F)ccc2CCC(=O)N2CCC(CC[S+]([O-])c3ccc(S(N)(=O)=O)c(F)c3F)CC2)n1` (stereo not shown) [Example 6.43, 2,3-difluoro-4-[2-[1-[3-[2-[(5-methyltetrazol-2-yl)methyl]-4-(trifluoromethyl)phenyl]propanoyl]piperidin-4-yl]ethylsulfinyl]benzenesulfonamide] had a pIC50 in assay [1] of 8.22.

`Cc1nnn(Cc2cc(OC(F)F)ccc2CCC(=O)N2CCC(CC[S+]([O-])c3ncc(S(N)(=O)=O)s3)CC2)n1` (stereo not shown) [Example 6.44, 2-[2-[1-[3-[4-(difluoromethoxy)-2-[(5-methyltetrazol-2-yl)methyl]phenyl]propanoyl]piperidin-4-yl]ethylsulfinyl]-1,3-thiazole-5-sulfonamide] showed a pIC50 in assay [1] of 8.15.

Molecule `Cc1nnn(Cc2cc(C(F)(F)F)ccc2CCC(=O)N2CCN(Cc3ccc(S(N)(=O)=O)cc3)CC2)n1` [Example 9.00, 4-[[4-[3-[2-[(5-Methyltetrazol-2-yl)methyl]-4-(trifluoromethyl)phenyl]propanoyl]piperazin-1-yl]methyl]benzenesulfonamide] gave a pIC50 in assay [1] of 7.57.

Source of the values: patent publication US11059794B2, “Heterocyclic compounds useful as dual ATX/CA inhibitors” (Hoffmann-La Roche Inc., priority 2017, dated 2021).
